Assay results taken from the supplement of paper PMC8671470.

Columns and labels:
Conditions in all cases: 72 h
HL-60 [1] = assay: cell viability (% survival relative to DMSO control); higher = less cytotoxic
Summary of the method: (§1)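 HL-60 cells grown in RPMI 1640 with 10% FBS were rescreened against the full library in 384-well plates, in duplicate, at five tenfold concentrations from 1 to 10,000 nM, alongside DMSO or 100 nM of one of three metabolic inhibitors for 72 h at 37 °C, 5% CO2. Reference wells contained DMSO or 10 μM proteasome inhibitor. Viability was read with CellTiter-Glo and normalised to these reference wells, and where reported, area under the curve was taken from four-parameter log-logistic fits in drc and PharmacoGx.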

HL-60 [2] = assay: area under dose-response curve (viability, 1 nM-10 uM) (fraction (0-1)); higher = more sensitive
Summary of the method: as §1

[3] = test system: myeloid leukemia patient primary cells Pat.10; assay: cell viability (% survival relative to DMSO control); higher = less cytotoxic
Summary of the method: (§2)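 Mononuclear cells from patients with AML or CML were thawed, purified on Ficoll and placed in RPMI 1640 with 10% FBS at 10,000 cells/well on 384-well plates. The plates came pre-printed with 70 compounds at five tenfold concentrations spanning 1–10,000 nM, in duplicate, and cells were exposed for 72 h. CellTiter-Glo gave viability, scaled between DMSO wells and wells with 10 μM proteasome inhibitor. Where reported, area under the curve was obtained from log-logistic fits with four parameters using the drc and PharmacoGx R packages.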

[4] = test system: myeloid leukemia patient primary cells Pat.15; assay: as above
Summary of the method: as §2

[5] = test system: myeloid leukemia patient primary cells Pat.2; assay: as above
Summary of the method: as §2

[6] = test system: myeloid leukemia patient primary cells Pat.11; assay: as above
Summary of the method: as §2

[7] = test system: myeloid leukemia patient primary cells Pat.9; assay: as above
Summary of the method: as §2

[8] = test system: myeloid leukemia patient primary cells Pat.6; assay: as above
Summary of the method: as §2

[9] = test system: myeloid leukemia patient primary cells Pat.4; assay: as above
Summary of the method: as §2

[10] = test system: myeloid leukemia patient primary cells Pat.8; assay: as above
Summary of the method: as §2

[11] = test system: myeloid leukemia patient primary cells Pat.5; assay: as above
Summary of the method: as §2

[12] = test system: myeloid leukemia patient primary cells Pat.12; assay: as above
Summary of the method: as §2

[13] = test system: myeloid leukemia patient primary cells Pat.3; assay: as above
Summary of the method: as §2

[14] = test system: myeloid leukemia patient primary cells Pat.13; assay: as above
Summary of the method: as §2

[15] = test system: myeloid leukemia patient primary cells Pat.1; assay: as above
Summary of the method: as §2

[16] = test system: myeloid leukemia patient primary cells Pat.14; assay: as above
Summary of the method: as §2

[17] = test system: myeloid leukemia patient primary cells Pat.7; assay: as above
Summary of the method: as §2

CO[C@H]1C[C@@H]2CC[C@@H](C)[C@@](O)(O2)C(=O)C(=O)N2CCCC[C@H]2C(=O)O[C@H]([C@H](C)C[C@@H]2CC[C@@H](OCCO)[C@H](OC)C2)CC(=O)[C@H](C)/C=C(\C)[C@@H](O)[C@@H](OC)C(=O)[C@H](C)C[C@H](C)/C=C/C=C/C=C/1C [Everolimus]
cell viability [%], HL-60 [1]
Conditions | 0.001 µM | 0.01 µM | 0.1 µM | 1 µM | 10 µM
co-treatment: AZD3965 100 nM | 100 | 95.63 | 97.03 | 93.2 | 83.2
co-treatment: DMSO vehicle | 84.2 | 90.5 | 93.85 | 98.3 | 93.8
co-treatment: GSK2194069 100 nM | 85.1 | 88.9 | 97.9 | 110.7 | 88.4
co-treatment: pictilisib 100 nM | 78.7 | 88.7 | 87.9 | 89.2 | 72.1

Conditions | area under dose-response curve, co-treatment: AZD3965 100 nM | area under dose-response curve, co-treatment: DMSO vehicle | area under dose-response curve, co-treatment: GSK2194069 100 nM | area under dose-response curve, co-treatment: pictilisib 100 nM | cell viability, 1 nM [%] | cell viability, 10 nM [%] | cell viability, 100 nM [%] | cell viability, 1000 nM [%] | cell viability, 10000 nM [%]
HL-60 [2] | < 0.0301 | < 0.0301 | < 0.0301 | < 0.0301 | – | – | – | – | –
[3] | – | – | – | – | 34.9 | 31.3 | 34.9 | 41.7 | 11.8
[4] | – | – | – | – | 62.3 | 44.6 | 36.8 | 40 | 22.9
[5] | – | – | – | – | 82.6 | 83.8 | 74.4 | 82.3 | 68.2
[6] | – | – | – | – | 90.6 | 83.8 | 89.2 | 87.3 | 70.2
[7] | – | – | – | – | 64.2 | 22.3 | 87.7 | 15.7 | 0.492
[8] | – | – | – | – | 96.2 | 92.4 | 99.1 | 87.4 | 53.5
[9] | – | – | – | – | 64.8 | 57.9 | 47 | 47.3 | 41.9
[10] | – | – | – | – | 67.6 | 68.8 | 56.4 | 80.7 | 66.5
[11] | – | – | – | – | 49.5 | 20.5 | 23 | 9.25 | 0.912
[12] | – | – | – | – | 96.2 | > 100 | > 100 | 93.7 | 99
[13] | – | – | – | – | 78.6 | 5.05 | 94.1 | 42.3 | 7.24
[14] | – | – | – | – | 82.2 | 82.6 | 74.8 | 79.3 | 43.1
[15] | – | – | – | – | 88.6 | 56.4 | 74 | 60.2 | 41.2
[16] | – | – | – | – | 90.7 | 53.5 | 96.7 | 59.3 | 17.4
[17] | – | – | – | – | 85 | 68.8 | 99.3 | 79.1 | 2.34
